This note sets out measurements from US10709706B2, “Nuclear transport modulators and uses thereof” (Karyopharm Therapeutics Inc., priority 2015, dated 2020).

What all share (type): cell-based
One experiment concerns Z138 cells. As to the kind of experiment: MTT cell proliferation assay, Z138 cells. The settings on record: Homo sapiens, Z-138, approximately 64-72 hours, 1 nM to 30 μM. The method, then: (§1) The MTT cell proliferation assay was used to study the cytotoxic properties of the compounds. The assay was performed according to the method described by Roche Molecular Biochemicals, with minor modifications. The assay is based on the cleavage of the tetrazolium salt, MTT, in the presence of an electron-coupling reagent. The water-insoluble formazan salt produced must be solubilized in an additional step. Cells grown in a 96-well tissue culture plate were incubated with the MTT solution for approximately 4 hours. After this incubation period, a water-insoluble formazan dye formed. After solubilization, the formazan dye was quantitated using a scanning multi-well spectrophotometer (ELISA reader). […] The cells were seeded at 5,000-10,000 cells in each well of 96-well plate in 100 μL of fresh culture medium and were allowed to attach overnight. The stock solutions of the compounds were diluted in 100 μL cell culture medium to obtain eight concentrations of each test compound, ranging from 1 nM to 30 μM. […] All optical densities were measured at 490 nm using a Vmax Kinetic Microplate Reader (Molecular Devices). In most cases, the assay was performed in duplicate and the results were presented as a mean percent inhibition to the negative control±SE. The following formula was used to calculate the percent of inhibition: Inhibition (%)=(1−(ODo/OD))×100.
(§2) The compounds were tested against Z138, MM1S and 3T3 cells. The Z138 cell line is a mature B-cell acute lymphoblastic leukemia cell line derived from a patient with chronic lymphocytic leukemia. The MM1S cell line was established from the peripheral blood of a human multiple myeloma patient. 3T3 cells are standard fibroblast cells; they were originally isolated from Swiss mouse embryo tissue.

For the next experiment, the system named is 3T3 cells. As to the kind of experiment: MTT cell proliferation assay, 3T3 cells. The settings on record: Mus musculus, NIH3T3, 3T3 fibroblast cells, approximately 64-72 hours, 1 nM to 30 μM. The method, then:
as §1, §2

In a further experiment the test system is MM1S cells. As to the kind of experiment: MTT cell proliferation assay, MM1S cells. The settings on record: Homo sapiens, MM1.S, MM1S multiple myeloma cells, approximately 64-72 hours, 1 nM to 30 μM. Here is the method: as §1, §2
On the technique in general: Formazan colour is commonly taken as a measure of viable cells.

Molecules are shown by their SMILES.

One may read the IC50 as the concentration needed to halve the response being measured. Low readings indicate higher potency, high ones lower potency. As to `NC(=O)/C(=C/c1ccnc(-c2cc(C(F)(F)F)cc(C(F)(F)F)c2)n1)c1ccc(S(=O)(=O)C2CC2)cc1` [Compound 122, (E)-3-(2-(3,5-bis(trifluoromethyl)phenyl)pyrimidin-4-yl)-2-(4-(cyclopropylsulfonyl)phenyl)acrylamide], the results for the IC50 with Z138 cells, in the experiment on 3T3 cells and in the experiment with MM1S cells were 0.1 to 5 µM, > 30 µM and 5 to 30 µM, respectively.
As for `NC(=O)/C(=C/c1ccnc(-c2cc(C(F)(F)F)cc(C(F)(F)F)c2)n1)c1csc2ccccc12` [Compound 123, (E)-2-(benzo[b]thiophen-3-yl)-3-(2-(3,5-bis(trifluoromethyl)phenyl)pyrimidin-4-yl)acrylamide], the IC50 with Z138 cells, in the experiment with 3T3 cells and in the experiment on MM1S cells was > 30 µM throughout.
As for `Cc1noc(C)c1/C(=C\c1ccnc(-c2cc(C(F)(F)F)cc(C(F)(F)F)c2)n1)C(N)=O` [Compound 124, (E)-3-(2-(3,5-bis(trifluoromethyl)phenyl)pyrimidin-4-yl)-2-(3,5-dimethylisoxazol-4-yl)acrylamide], the IC50 in the experiment on Z138 cells, in the experiment with 3T3 cells and in the experiment with MM1S cells was > 30 µM each time.
Regarding `N#Cc1ncc(/C(=C\c2ccnc(-c3cc(C(F)(F)F)cc(C(F)(F)F)c3)n2)C(N)=O)cn1` [Compound 125, (E)-3-(2-(3,5-bis(trifluoromethyl)phenyl)pyrimidin-4-yl)-2-(2-cyanopyrimidin-5-yl)acrylamide], the IC50 in the experiment on Z138 cells was < 0.1 µM; in the experiment on 3T3 cells, > 30 µM; in the experiment on MM1S cells, < 0.1 µM.
For the molecule `NC(=O)/C(=C/c1ccnc(-c2cc(C(F)(F)F)cc(C(F)(F)F)c2)n1)c1ccc(S(=O)(=O)N2CC(F)C2)cc1` [Compound 126, (E)-3-(2-(3,5-bis(trifluoromethyl)phenyl)pyrimidin-4-yl)-2-(4-((3-fluoroazetidin-1-yl)sulfonyl)phenyl)acrylamide], the IC50 with Z138 cells, in the experiment on 3T3 cells and in the experiment with MM1S cells was > 30 µM throughout.
In the case of `CS(=O)(=O)c1ccc(/C(=C\c2ccnc(-c3cc(C(F)(F)F)cc(C(F)(F)F)c3)n2)C(N)=O)cc1` [Compound 127, (E)-3-(2-(3,5-bis(trifluoromethyl)phenyl)pyrimidin-4-yl)-2-(4-(methylsulfonyl)phenyl)acrylamide], the IC50 in the experiment on Z138 cells, with 3T3 cells and in the experiment on MM1S cells was > 30 µM throughout.
With `NC(=O)/C(=C/c1ccnc(-c2cc(C(F)(F)F)cc(C(F)(F)F)c2)n1)c1ccc(S(=O)(=O)NC2CC2)cc1` [Compound 128, (E)-3-(2-(3,5-bis(trifluoromethyl)phenyl)pyrimidin-4-yl)-2-(4-(N-cyclopropylsulfamoyl)phenyl)acrylamide], the 50% inhibitory concentration (IC50) is 5 to 30 µM in the experiment on Z138 cells, > 30 µM in the experiment on 3T3 cells and 5 to 30 µM in the experiment with MM1S cells.
`NC(=O)/C(=C/c1ccnc(-c2cc(C(F)(F)F)cc(C(F)(F)F)c2)n1)c1cccc(S(=O)(=O)N2CCOCC2)c1` [Compound 129, (E)-3-(2-(3,5-bis(trifluoromethyl)phenyl)pyrimidin-4-yl)-2-(3-(morpholinosulfonyl)phenyl)acrylamide]: the IC50 in the experiment with Z138 cells, in the experiment with 3T3 cells and in the experiment on MM1S cells was > 30 µM throughout.
Turning to `NC(=O)/C(=C/c1ccnc(-c2cc(C(F)(F)F)cc(C(F)(F)F)c2)n1)c1ccc(S(=O)(=O)N2CC(F)(F)C2)cc1` [Compound 130, (E)-3-(2-(3,5-bis(trifluoromethyl)phenyl)pyrimidin-4-yl)-2-(4-((3,3-difluoroazetidin-1-yl)sulfonyl)phenyl)acrylamide], the IC50 in the experiment on Z138 cells was > 30 µM; in the experiment with 3T3 cells, > 30 µM; in the experiment with MM1S cells, 5 to 30 µM.
For the molecule `NC(=O)/C(=C/c1ccnc(-c2cc(C(F)(F)F)cc(C(F)(F)F)c2)n1)c1cccc(S(=O)(=O)N2CCC(F)CC2)c1` [Compound 131, (E)-3-(2-(3,5-bis(trifluoromethyl)phenyl)pyrimidin-4-yl)-2-(3-((4-fluoropiperidin-1-yl)sulfonyl)phenyl)acrylamide], the IC50 with Z138 cells, in the experiment on 3T3 cells and in the experiment with MM1S cells was > 30 µM each time.
On to `NC(=O)/C(=C/c1ccnc(-c2cc(C(F)(F)F)cc(C(F)(F)F)c2)n1)c1ccc(F)cc1F` [Compound 132, (E)-3-(2-(3,5-bis(trifluoromethyl)phenyl)pyrimidin-4-yl)-2-(2,4-difluorophenyl)acrylamide], for which the IC50 in the experiment with Z138 cells, in the experiment on 3T3 cells and in the experiment with MM1S cells was > 30 µM in each case.
Regarding `NC(=O)/C(=C/c1ccnc(-c2cc(C(F)(F)F)cc(C(F)(F)F)c2)n1)c1ccc(OC(F)(F)F)cc1` [Compound 134, (E)-3-(2-(3,5-bis(trifluoromethyl)phenyl)pyrimidin-4-yl)-2-(4-(trifluoromethoxy)phenyl)acrylamide], the half-inhibitory concentration (IC50) in the experiment on Z138 cells, in the experiment with 3T3 cells and in the experiment on MM1S cells was > 30 µM each time.
Consider `N#Cc1ccc(/C(=C\c2ccnc(-c3cc(C(F)(F)F)cc(C(F)(F)F)c3)n2)C(N)=O)s1` [Compound 135, (Z)-3-(2-(3,5-bis(trifluoromethyl)phenyl)pyrimidin-4-yl)-2-(5-cyanothiophen-2-yl)acrylamide], for which the half-inhibitory concentration (IC50) is 0.1 to 5 µM in the experiment with Z138 cells, 5 to 30 µM in the experiment on 3T3 cells and < 0.1 µM in the experiment with MM1S cells.
On to `NC(=O)/C(=C/c1ccnc(-c2cc(C(F)(F)F)cc(C(F)(F)F)c2)n1)c1cc2ccccc2o1` [Compound 136, (E)-2-(benzofuran-2-yl)-3-(2-(3,5-bis(trifluoromethyl)phenyl)pyrimidin-4-yl)acrylamide], for which the values for the IC50 in the experiment with Z138 cells, in the experiment with 3T3 cells and in the experiment with MM1S cells were 0.1 to 5 µM, 5 to 30 µM and 0.1 to 5 µM, respectively.
`NC(=O)/C(=C/c1ccnc(-c2cc(C(F)(F)F)cc(C(F)(F)F)c2)n1)c1cc2ccccc2s1` [Compound 137, (Z)-2-(benzo[b]thiophen-2-yl)-3-(2-(3,5-bis(trifluoromethyl)phenyl)pyrimidin-4-yl)acrylamide]: the IC50 is 0.1 to 5 µM in the experiment on Z138 cells, > 30 µM in the experiment with 3T3 cells and 0.1 to 5 µM with MM1S cells.
For `NC(=O)/C(=C/c1ccnc(-c2cc(C(F)(F)F)cc(C(F)(F)F)c2)n1)c1ccc2cn[nH]c2c1` [Compound 140, (E)-3-(2-(3,5-bis(trifluoromethyl)phenyl)pyrimidin-4-yl)-2-(1H-indazol-6-yl)acrylamide], the results for the IC50 in the experiment with Z138 cells, with 3T3 cells and in the experiment with MM1S cells were 0.1 to 5 µM, > 30 µM and > 30 µM, respectively.
Take `NC(=O)/C(=C/c1ccnc(-c2cc(C(F)(F)F)cc(C(F)(F)F)c2)n1)c1cccc(Cl)c1Cl` [Compound 141, (E)-3-(2-(3,5-bis(trifluoromethyl)phenyl)pyrimidin-4-yl)-2-(2,3-dichlorophenyl)acrylamide]: the IC50 in the experiment on Z138 cells, in the experiment on 3T3 cells and in the experiment on MM1S cells was > 30 µM throughout.
Take `NC(=O)/C(=C/c1ccnc(-c2cc(C(F)(F)F)cc(C(F)(F)F)c2)n1)c1ccc(-c2cccnc2)cc1` [Compound 142, (E)-3-(2-(3,5-bis(trifluoromethyl)phenyl)pyrimidin-4-yl)-2-(4-(pyridin-3-yl)phenyl)acrylamide]: the IC50 in the experiment with Z138 cells, with 3T3 cells and with MM1S cells was > 30 µM throughout.
As to `NC(=O)/C(=C/c1ccnc(-c2cc(C(F)(F)F)cc(C(F)(F)F)c2)n1)c1ccsc1Cl` [Compound 143, (E)-3-(2-(3,5-bis(trifluoromethyl)phenyl)pyrimidin-4-yl)-2-(2-chlorothiophen-3-yl)acrylamide], the IC50 in the experiment with Z138 cells, with 3T3 cells and with MM1S cells was > 30 µM in each case.
On to `CS(=O)(=O)Nc1cccc(/C(=C\c2ccnc(-c3cc(C(F)(F)F)cc(C(F)(F)F)c3)n2)C(N)=O)c1` [Compound 144, (E)-3-(2-(3,5-bis(trifluoromethyl)phenyl)pyrimidin-4-yl)-2-(3-(methylsulfonamido)phenyl)acrylamide], for which the IC50 in the experiment with Z138 cells, in the experiment with 3T3 cells and in the experiment on MM1S cells was > 30 µM each time.
In the case of `NC(=O)/C(=C/c1ccnc(-c2cc(C(F)(F)F)cc(C(F)(F)F)c2)n1)c1cccc(S(=O)(=O)N2CC(F)C2)c1` [Compound 145, (E)-3-(2-(3,5-bis(trifluoromethyl)phenyl)pyrimidin-4-yl)-2-(3-((3-fluoroazetidin-1-yl)sulfonyl)phenyl)acrylamide], the IC50 in the experiment on Z138 cells, in the experiment on 3T3 cells and with MM1S cells was > 30 µM each time.
In the case of `CN1CCN(S(=O)(=O)c2cccc(/C(=C\c3ccnc(-c4cc(C(F)(F)F)cc(C(F)(F)F)c4)n3)C(N)=O)c2)CC1` [Compound 146, (E)-3-(2-(3,5-bis(trifluoromethyl)phenyl)pyrimidin-4-yl)-2-(3-((4-methylpiperazin-1-yl)sulfonyl)phenyl)acrylamide], the IC50 with Z138 cells, in the experiment on 3T3 cells and with MM1S cells was > 30 µM each time.
